According to US11976083B2, “Inhibitors of peptidylarginine deiminases” (Gilead Sciences, Inc., priority 2020, dated 2024):

What follows are compounds tested against T1, human PAD4 (Homo sapiens, UniProt Q9UM07) (assay: In vitro PAD4 BAEE biochemical assay). Settings: BAEE substrate 3 mM, 5 nM PAD4, 2 mM calcium chloride; geometric mean of multiple experiments.
T1 construct: human PAD4 (NM_012387), A2-P663, was PCR amplified; His-SUMO (N, cleaved yes); made in house; host or cells: E. coli BL21(DE3)
Procedure, shortened: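 Ammonia produced by BAEE deimination (3 mM substrate, 2 h, 25 °C) was read as fluorescent isoindole after o-phthalaldehyde/DTT derivatization, ex 405 nm/em 535 nm. Human PAD4 at 5 nM final, 2 mM calcium, pH 7.6 MOPS; compound preincubated 30 min. IC50s, normalized to BB-Cl-Amidine and DMSO controls, were geometric-mean averaged.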

T1 sequence (Q9UM07 2-663): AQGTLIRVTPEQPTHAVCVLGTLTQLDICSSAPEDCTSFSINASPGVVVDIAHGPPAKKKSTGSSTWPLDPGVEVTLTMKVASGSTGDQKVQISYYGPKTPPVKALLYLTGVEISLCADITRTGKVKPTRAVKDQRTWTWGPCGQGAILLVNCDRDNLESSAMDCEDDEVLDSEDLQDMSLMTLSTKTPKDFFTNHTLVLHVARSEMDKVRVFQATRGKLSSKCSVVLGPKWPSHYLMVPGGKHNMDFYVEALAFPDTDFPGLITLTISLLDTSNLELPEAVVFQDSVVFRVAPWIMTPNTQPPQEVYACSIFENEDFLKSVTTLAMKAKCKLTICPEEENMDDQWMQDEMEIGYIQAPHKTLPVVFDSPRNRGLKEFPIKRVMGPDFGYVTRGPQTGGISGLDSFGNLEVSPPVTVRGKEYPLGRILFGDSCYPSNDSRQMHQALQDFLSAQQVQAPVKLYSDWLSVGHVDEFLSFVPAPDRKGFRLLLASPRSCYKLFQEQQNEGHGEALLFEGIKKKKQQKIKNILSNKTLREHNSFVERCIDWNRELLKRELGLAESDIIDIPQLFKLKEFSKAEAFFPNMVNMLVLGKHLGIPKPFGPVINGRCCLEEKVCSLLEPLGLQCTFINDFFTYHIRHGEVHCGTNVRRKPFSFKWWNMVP

Row | IC50 [nM] | SMILES
1 | 23700 | COc1cc(C(=O)N[C@@H]2CNCCC2(F)F)cc2nc(-c3cc4ccc5nc4n3CCCCCCC(C)(C)C(=O)N[C@@H]5C)n(C)c12 [Example 296, ~{N}-[(3~{R})-4,4-difluoro-3-piperidyl]-7-methoxy-1-methyl-2-[(11~{R})-8,8,11-trimethyl-9-oxo-1,10,19-triazatricyclo[10.5.2.0^{15,18}]nonadeca-12(19),13,15(18),16-tetraen-17-yl]benzimidazole-5-carboxamide]
2 | 315 | COc1cc(C(=O)N[C@H]2CNC[C@H](F)C2)cc2nc(-c3cc4ccc5nc4n3CCCCCCC(C)(C)C(=O)N[C@@H]5C)n(C)c12 [Example 64, ~{N}-[(3~{R},5~{R})-5-fluoro-3-piperidyl]-7-methoxy-1-methyl-2-[(11~{R})-8,8,11-trimethyl-9-oxo-1,10,19-triazatricyclo[10.5.2.0^{15,18}]nonadeca-12(19),13,15(18),16-tetraen-17-yl]benzimidazole-5-carboxamide]
3 | 161 | CO[C@@H]1CCN(C(=O)c2cc(F)c3c(c2)nc(-c2cc4ccc5nc4n2CCCCCc2nccnc2C(=O)N[C@@H]5C)n3C)C[C@@H]1N [Example 513, (2~{R})-17-[5-[(3~ {S},4~{R})-3-amino-4-methoxy-piperidine-1-carbonyl]-7-fluoro-1-methyl-benzimidazol-2-yl]-2-methyl-3,6,9,16,22-pentazatetracyclo[14.5.2.0^ {5,10}.0^{19,23}] tricosa-1(22),5(10),6,8,17,19 (23),20-heptaen-4-one]
4 | 56 | COc1cc(C(=O)N2CCC[C@@H](N)C2)cc2nc(-c3cc4ccc5cc4n3CCCCCOC(C)(C)C(=O)N[C@@H]5C)n(C)c12 [Example 156, (11~{R})-17-[5-[(3~{R})-3-aminopiperidine-1-carbonyl]-7-methoxy-1-methyl-benzimidazol-2-yl]-8,8,11-trimethyl-7-oxa-1,10-diazatricyclo[10.5.2.0^{15,18}]nonadeca-12(19),13,15(18),16-tetraen-9-one]
5 | 95 | CO[C@@H]1CCN(C(=O)c2cc(OC(F)F)c3c(c2)nc(-c2cc4ccc5nc4n2CCCCC[C@@H]2C[C@H]2C(=O)N[C@@H]5C)n3C)C[C@@H]1N [Example 511, (2~{R},5~{R}, 7~{R})-14-[5-[(3~{S},4~{R})-3-amino-4-methoxy-piperidine-1-carbonyl]-7-(difluoromethoxy)-1-methyl-benzimidazol-2-yl]-2-methyl-3,13,19-triazatetracyclo[11.5.2.0^ {5,7}.0^{16,20}] icosa-1(19),14,16(20), 17-tetraen-4-one]
6 | 69 | COc1nccc2c1C(=O)N[C@H](C)c1ccc3cc(-c4nc5cc(C(=O)N6CC[C@@H](OC)[C@@H](N)C6)cc(OC)c5n4C)n(c3n1)CCCCC2 [Example 863, (2~{R})-17-[5-[(3~{S},4~{R})-3-amino-4-methoxy-piperidine-1-carbonyl]-7-methoxy-1-methyl-benzimidazol-2-yl]-6-methoxy-2-methyl-3,7,16,22-tetrazatetracyclo[14.5.2.0^ {5,10}.0^{19,23}]tricosa-1(22), 5(10),6,8,17,19(23),20-heptaen-4-one]
7 | 71 | COc1cc(C(=O)N2[C@H]3CC[C@@H]2[C@H](N)C3)cc2nc(-c3cc4ccc5nc4n3C[C@H]3CC[C@H]3COCCC(=O)N[C@@H]5C)c(C)n12 [Example 8, (3~{S},6~{R},13~{R})-19-[7-[(1~{R},2~{R},4~{S})-2-amino-7-azabicyclo[2.2.1]heptane-7-carbonyl]-5-methoxy-3-methyl-imidazo[1,2-a]pyridin-2-yl]-13-methyl-8-oxa-1,12,21-triazatetracyclo[12.5.2.0^{3,6}.0^{17,20}] henicosa-14(21),15,17(20),18-tetraen-11-one]
8 | 409 | COc1cc(C(=O)N[C@@H]2CNC[C@@H](O)C2)cc2nc(-c3cc4ccc5nc4n3CCCCCCC(C)(C)C(=O)N[C@@H]5C)n(C)c12 [Example 529, ~{N}-[(3~{S},5~{S})-5-hydroxy-3-piperidyl]-7-methoxy-1-methyl-2-[(11~{R})-8,8,11-trimethyl-9-oxo-1,10,19-triazatricyclo[10.5.2.0^{15,18}]nonadeca-12(19),13,15(18),16-tetraen-17-yl]benzimidazole-5-carboxamide]
9 | 172 | COc1cc(C(=O)N2CC[C@@H](OC(F)F)[C@@H](N)C2)cc2nc(-c3cc4ccc5nc4n3CC(F)(F)CCCCC(C)(C)C(=O)N[C@@H]5C)n(C)c12 [Example 609, (11~{R})-17-[5-[(3~{S}, 4~{R})-3-amino-4-(difluoromethoxy)piperidine-1-carbonyl]-7-methoxy-1-methyl-benzimidazol-2-yl]-3,3-difluoro-8,8,11-trimethyl-1,10,19-triazatricyclo[10.5.2.0^ {15,18}]nonadeca-12,14,16,18-tetraen-9-one]
10 | 81 | C[C@H]1NC(=O)C(C)(C)CCCCCCn2c(-c3nc4cc(C(=O)N[C@H]5CNCC[C@@H]5F)c(F)cc4n3C)cc3ccc1nc32 [Example 591, 6-fluoro-~{N}-[(3~{S},4~ {S})-4-fluoro-3-piperidyl]-1-methyl-2-[(11~ {R})-8,8,11-trimethyl-9-oxo-1,10,19-triazatricyclo [10.5.2.0^{15,18}]nonadeca-12,14,16,18-tetraen-17-yl]benzimidazole-5-carboxamide]
11 | 16 | C[C@H]1NC(=O)C2(CC2)OCCCC(F)(F)Cn2c(-c3nc4cc(C(=O)N5C[C@H](N)[C@@H]6CC[C@H]5C6)cc(F)c4n3C3CC3)cc3ccc1nc32 [Example 773, (11~{R})-17-[5-[(1~{S},4~{R}, 5~{R})-4-amino-2-azabicyclo [3.2.1]octane-2-carbonyl]-1-cyclopropyl-7-fluoro-benzimidazol-2-yl]-3,3-difluoro-11-methyl-spiro[7-oxa-1,10,19-triazatricyclo[10.5.2.0^ {15,18}]nonadeca-12(19),13,15(18),16-tetraene-8,1′-cyclopropane]-9-one]
12 | 137 | COc1cc(C(=O)N2CC[C@@H](OC)[C@@H](N)C2)cc2nc(-c3cc4ccc5nc4n3CCCCCc3cccc(C)c3C(=O)N[C@@H]5C)n(C)c12 [Example 362, (2~{R})-17-[5-[(3~{S},4~{R})-3-amino-4-methoxy-piperidine-1-carbonyl]-7-methoxy-1-methyl-benzimidazol-2-yl]-2,6-dimethyl-3,16,22-triazatetracyclo[14.5.2.0^{5,10}.0^{19,23}] tricosa-1(22),5(10),6,8,17,19(23),20-heptaen-4-one]
13 | 424 | COc1cc(C(=O)N2CCC[C@@H](N)C2)cc2nc(-c3cc4ccc5cc4n3CCCCCCNC(=O)c3ncccc3-5)n(C)c12 [Example 52, 17-[5-[(3~{R})-3-aminopiperidine-1-carbonyl]-7-methoxy-1-methyl-benzimidazol-2-yl]-6,9,16-triazatetracyclo[14.5.2.0^{2,7}.0^{19,23}] tricosa-1(22),2,4,6,17,19(23),20-heptaen-8-one]
14 | 70 | COc1cc(C(=O)N2CC[C@@H](OC)[C@@H](N)C2)cc2nc(-c3cc4ccc5nc4n3CCCCCc3nc(Cl)ccc3C(=O)N[C@@H]5C)n(C)c12 [Example 407, (2~{R})-17-[5-[(3~{S},4~{R})-3-amino-4-methoxy-piperidine-1-carbonyl]-7-methoxy-1-methyl-benzimidazol-2-yl]-8-chloro-2-methyl-3,9,16,22-tetrazatetracyclo[14.5.2.0^{5,10).0^{19,23}] tricosa-1(22),5(10),6,8,17,19(23),20-heptaen-4-one]
